The source of these data is ChEMBL document CHEMBL1144866, “Surface descriptors for protein-ligand affinity prediction” (J Med Chem, 2003).

This experiment can be described thus: Inhibitory activity against glycogen phosphorylase, activity expressed as -logKi.

As to `COC(=O)N[C@]1(C(N)=O)O[C@H](CO)[C@@H](O)[C@H](O)[C@H]1O`, the “-Log Ki” value is reported as 4.796. Take `OCC1OC(CO)C(O)C(O)C1O` (configuration not stated): the “-Log Ki” value is 2.824. As for `O=C(CCl)N[C@H]1O[C@H](CO)[C@@H](O)[C@H](O)[C@H]1O`, the figure is 4.347; as for `NC(=O)N[C@H]1O[C@H](CO)[C@@H](O)[C@H](O)[C@H]1O`, 3.854. As for `CCCC(=O)N[C@H]1O[C@H](CO)[C@@H](O)[C@H](O)[C@H]1O`, the figure is 4.027. Turning to `O=C(N[C@H]1O[C@H](CO)[C@@H](O)[C@H](O)[C@H]1O)c1ccccc1`, the “-Log Ki” value turned out to be 4.092.

As to `CC(=O)NCC(=O)N[C@H]1O[C@H](CO)[C@@H](O)[C@H](O)[C@H]1O`, the “-Log Ki” value stood at 3.004. For `CCC(=O)N[C@H]1O[C@H](CO)[C@@H](O)[C@H](O)[C@H]1O`, the “-Log Ki” value was determined as 4.409.

Consider `CC(=O)N[C@H]1O[C@H](CO)[C@@H](O)[C@H](O)[C@H]1O`, for which the “-Log Ki” value came out at 4.495. Turning to `O=C(CBr)N[C@H]1O[C@@H](CO)[C@@H](O)[C@H](O)[C@@H]1O`, the “-Log Ki” value amounted to 4.357. Turning to `NCC(=O)N[C@H]1O[C@@H](CO)[C@@H](O)[C@H](O)[C@@H]1O`, the “-Log Ki” value amounted to 3.432.

With `NN1C(=O)N[C@@]2(O[C@@H](CO)[C@@H](O)[C@H](O)[C@@H]2O)C1=O`, the “-Log Ki” value is 3.836. Regarding `NC(=O)C1OC(CO)C(O)C(O)C1O` (configuration not stated), the “-Log Ki” value was determined as 3.357. Then `CNC(=O)C1OC(CO)C(O)C(O)C1O` (configuration not stated), with 3.796.

As to `CS(=O)(=O)OCC1OC(CO)C(O)C(O)C1O` (configuration not stated), the “-Log Ki” value is recorded as 2.319.

Regarding `NCC1OC(CO)C(O)C(O)C1O` (stereo in doubt; form 1), the “-Log Ki” value is 1.462. Then `NCC1OC(CO)C(O)C(O)C1O` (stereo in doubt; form 2), with 1.775.
